These results are taken from patent US8211462B2, “Hot-melt TTS for administering rotigotine” (UCB Pharma GmbH, priority 2002, dated 2012).

Data set [1] in a line: Solubility of rotigotine in hydrophobic adhesives. The class given is physicochemical.
Data set [2] in a line: Active-substance stability: rotigotine purity in the cement matrix by gradient HPLC. The conditions noted are these: hot-melt processing. Format: physicochemical. Here is the method: The cement matrix was mixed with 0.1% methane sulfonic acid, agitated, centrifuged and measured. (b3) Analytics of the Active-Substance Stability: […] Column: LiChrosphere 100 CN, 125 mm×4.6 mm, 5 μm. Flow rate: 1.0 mL, column temperature: 40° C. UV detection (2 wavelengths: 272 and 220 nm).

On to `CCCN(CCc1cccs1)[C@H]1CCc2c(O)cccc2C1` [rotigotine, (−)-5,6,7,8-tetrahydro-6-[propyl[2-(2-thienyl)ethyl-)amino]-1-naphthol], for which, in data set [1], the “solubility of rotigotine in hydrophobic adhesives such as silicones” value was “soluble in trace amounts only”. The “remains stable under short-term heating to temperatures up to” value in data set [2] is “at least 160 °C”.
